Among the data in ChEMBL document CHEMBL3132769, “Fragment growing to retain or alter the selectivity of anchored kinase hinge-binding fragments” (Medchemcomm, 2014) are inhibition values, retold here.

For orientation: inhibition means how much of the control response was suppressed.

Test [1] concerns the target Ribosomal protein S6 kinase alpha-5 (Homo sapiens) (UniProt O75582). The test can be described thus: Inhibition of human full length MSK1 expressed in baculovirus assessed as substrate phosphorylation using fluorescence-labelled peptides as substrate at 8 uM after 90 mins by microfluidic peptide phosphorylation assay.
Test [2] has as its target T1, Serine/threonine-protein kinase BRSK2 (Homo sapiens) (UniProt Q8IWQ3).
T1 sequence (whole entry): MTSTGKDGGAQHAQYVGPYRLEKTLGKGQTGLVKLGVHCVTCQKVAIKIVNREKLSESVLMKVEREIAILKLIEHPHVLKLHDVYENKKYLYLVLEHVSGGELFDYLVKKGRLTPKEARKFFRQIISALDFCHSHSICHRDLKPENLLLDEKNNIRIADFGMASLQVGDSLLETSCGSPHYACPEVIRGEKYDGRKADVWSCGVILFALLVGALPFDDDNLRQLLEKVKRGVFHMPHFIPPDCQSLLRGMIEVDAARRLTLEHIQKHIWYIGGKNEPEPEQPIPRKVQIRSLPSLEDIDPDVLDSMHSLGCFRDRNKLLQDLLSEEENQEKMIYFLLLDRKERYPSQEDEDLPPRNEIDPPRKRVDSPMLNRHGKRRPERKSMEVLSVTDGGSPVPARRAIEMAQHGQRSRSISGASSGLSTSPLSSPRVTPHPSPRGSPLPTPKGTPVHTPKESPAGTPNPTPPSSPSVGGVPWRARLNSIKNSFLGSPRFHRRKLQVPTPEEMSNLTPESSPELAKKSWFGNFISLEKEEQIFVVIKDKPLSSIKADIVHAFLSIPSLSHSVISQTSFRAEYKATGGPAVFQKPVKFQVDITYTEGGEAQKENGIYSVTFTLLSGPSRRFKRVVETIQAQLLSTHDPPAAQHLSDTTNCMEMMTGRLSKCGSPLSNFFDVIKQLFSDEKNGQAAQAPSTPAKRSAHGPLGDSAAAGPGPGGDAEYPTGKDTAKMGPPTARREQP
Put plainly: Inhibition of human truncated BRSK2 expressed in baculovirus assessed as substrate phosphorylation using fluorescence-labelled peptides as substrate at 8 uM after 90 mins by microfluidic peptide phosphorylation assay.

For test [3], the target named is Glycogen synthase kinase-3 beta (Homo sapiens) (UniProt P49841). The test can be described thus: Inhibition of human full length GSK-3 beta expressed in baculovirus assessed as substrate phosphorylation using fluorescence-labelled peptides as substrate at 8 uM after 90 mins by microfluidic peptide phosphorylation assay.
In test [4] the target is Epidermal growth factor receptor (Homo sapiens) (UniProt P00533). The test can be described thus: Inhibition of human EGFR catalytic domain expressed in baculovirus assessed as substrate phosphorylation using fluorescence-labelled peptides as substrate at 0.1 uM after 90 mins by microfluidic peptide phosphorylation assay.
Test [5] deals with Vascular endothelial growth factor receptor 2 (Homo sapiens) (UniProt P35968). Put plainly: Inhibition of human KDR cytoplasmic domain expressed in baculovirus assessed as substrate phosphorylation using fluorescence-labelled peptides as substrate at 0.06 uM after 90 mins by microfluidic peptide phosphorylation assay.
Test [6] has as its target Ribosomal protein S6 kinase alpha-1 (Homo sapiens) (UniProt Q15418). Put plainly: Inhibition of human full length RSK1 expressed in baculovirus assessed as substrate phosphorylation using fluorescence-labelled peptides as substrate at 0.2 uM after 90 mins by microfluidic peptide phosphorylation assay.
The target in test [7] is Mitogen-activated protein kinase kinase kinase kinase 4 (Homo sapiens) (UniProt O95819). The test can be described thus: Inhibition of human HGK catalytic domain expressed in baculovirus assessed as substrate phosphorylation using fluorescence-labelled peptides as substrate at 9 uM after 90 mins by microfluidic peptide phosphorylation assay.
The target of test [8] is T2, Serine/threonine-protein kinase Chk1 (Homo sapiens) (UniProt O14757).
T2 sequence (whole entry): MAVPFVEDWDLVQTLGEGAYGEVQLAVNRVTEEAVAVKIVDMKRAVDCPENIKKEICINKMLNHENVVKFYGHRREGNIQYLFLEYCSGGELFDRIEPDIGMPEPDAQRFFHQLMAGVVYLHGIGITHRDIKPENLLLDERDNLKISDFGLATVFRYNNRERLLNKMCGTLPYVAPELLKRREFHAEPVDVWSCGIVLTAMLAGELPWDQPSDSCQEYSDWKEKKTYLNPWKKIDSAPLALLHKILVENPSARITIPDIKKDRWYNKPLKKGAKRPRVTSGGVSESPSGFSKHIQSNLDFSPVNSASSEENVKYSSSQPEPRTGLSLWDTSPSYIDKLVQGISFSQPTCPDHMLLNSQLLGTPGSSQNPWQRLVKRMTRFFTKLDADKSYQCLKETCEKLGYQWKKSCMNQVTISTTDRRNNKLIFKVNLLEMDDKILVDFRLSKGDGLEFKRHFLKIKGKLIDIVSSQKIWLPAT
The test can be described thus: Inhibition of human full length CHK1 expressed in baculovirus assessed as substrate phosphorylation using fluorescence-labelled peptides as substrate at 70 uM after 90 mins by microfluidic peptide phosphorylation assay.

Test [9] relates to Tyrosine-protein kinase ABL1 (Homo sapiens), P00519 [Q252H]. The test can be described thus: Inhibition of human truncated ABL Q252H mutant expressed in baculovirus assessed as substrate phosphorylation using fluorescence-labelled peptides as substrate at 70 uM after 90 mins by microfluidic peptide phosphorylation assay.
In test [10] the target is T3, cGMP-dependent protein kinase 1 (Homo sapiens) (UniProt Q13976).
T3 sequence (whole entry): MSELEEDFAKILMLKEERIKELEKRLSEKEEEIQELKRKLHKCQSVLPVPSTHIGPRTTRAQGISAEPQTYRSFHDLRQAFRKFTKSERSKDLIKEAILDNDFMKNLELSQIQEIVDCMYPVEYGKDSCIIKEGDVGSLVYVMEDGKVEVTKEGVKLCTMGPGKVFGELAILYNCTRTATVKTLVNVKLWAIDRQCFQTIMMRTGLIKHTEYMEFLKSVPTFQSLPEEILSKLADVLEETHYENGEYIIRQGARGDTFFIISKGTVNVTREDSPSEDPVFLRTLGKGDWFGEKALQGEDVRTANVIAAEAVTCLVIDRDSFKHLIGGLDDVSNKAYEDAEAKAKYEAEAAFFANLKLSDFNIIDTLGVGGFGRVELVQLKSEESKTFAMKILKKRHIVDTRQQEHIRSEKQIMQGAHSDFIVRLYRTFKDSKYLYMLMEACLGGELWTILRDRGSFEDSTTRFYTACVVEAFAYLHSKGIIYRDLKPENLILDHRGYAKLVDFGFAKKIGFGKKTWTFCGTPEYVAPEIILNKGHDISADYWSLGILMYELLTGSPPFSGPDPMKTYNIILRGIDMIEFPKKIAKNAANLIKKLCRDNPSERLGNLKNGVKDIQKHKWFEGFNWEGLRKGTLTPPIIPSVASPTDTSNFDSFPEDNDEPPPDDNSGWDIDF
Put plainly: Inhibition of human full length PKG-1beta expressed in baculovirus assessed as substrate phosphorylation using fluorescence-labelled peptides as substrate at 95 uM after 90 mins by microfluidic peptide phosphorylation assay.

For test [11], the target named is Proto-oncogene tyrosine-protein kinase Src (Homo sapiens) (UniProt P12931). Put plainly: Inhibition of human full length SRC expressed in baculovirus assessed as substrate phosphorylation using fluorescence-labelled peptides as substrate at 95 uM after 90 mins by microfluidic peptide phosphorylation assay.
Proto-oncogene tyrosine-protein kinase Src (Homo sapiens), sequence (P12931 2-536 limits assumed): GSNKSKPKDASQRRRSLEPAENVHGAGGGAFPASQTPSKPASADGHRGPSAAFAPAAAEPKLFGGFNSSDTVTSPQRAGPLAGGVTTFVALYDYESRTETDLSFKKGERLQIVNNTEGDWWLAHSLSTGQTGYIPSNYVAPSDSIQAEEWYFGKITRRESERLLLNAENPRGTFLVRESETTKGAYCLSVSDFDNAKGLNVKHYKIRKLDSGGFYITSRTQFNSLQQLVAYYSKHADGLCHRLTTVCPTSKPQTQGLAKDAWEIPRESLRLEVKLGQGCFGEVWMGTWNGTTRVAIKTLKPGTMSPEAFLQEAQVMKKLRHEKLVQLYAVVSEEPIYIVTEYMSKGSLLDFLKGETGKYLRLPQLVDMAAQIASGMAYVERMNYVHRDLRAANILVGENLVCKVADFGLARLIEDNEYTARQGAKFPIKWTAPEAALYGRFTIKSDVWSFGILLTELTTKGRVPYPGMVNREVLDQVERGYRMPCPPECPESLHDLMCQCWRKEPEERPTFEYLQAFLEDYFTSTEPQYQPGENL

Glycogen synthase kinase-3 beta (Homo sapiens), sequence (P49841 whole entry, looked up, the tested form may be a part): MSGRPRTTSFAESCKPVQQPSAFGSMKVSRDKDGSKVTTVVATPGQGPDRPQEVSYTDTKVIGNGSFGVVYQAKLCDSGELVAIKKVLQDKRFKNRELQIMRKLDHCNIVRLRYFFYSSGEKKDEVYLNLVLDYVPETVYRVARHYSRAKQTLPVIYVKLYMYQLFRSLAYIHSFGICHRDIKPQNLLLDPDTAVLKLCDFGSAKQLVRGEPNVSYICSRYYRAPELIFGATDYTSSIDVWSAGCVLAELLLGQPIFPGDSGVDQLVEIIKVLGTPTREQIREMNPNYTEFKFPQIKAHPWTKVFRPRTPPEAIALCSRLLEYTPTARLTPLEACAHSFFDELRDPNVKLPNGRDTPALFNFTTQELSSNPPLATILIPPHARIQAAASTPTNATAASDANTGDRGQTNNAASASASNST
Ribosomal protein S6 kinase alpha-5 (Homo sapiens), sequence (O75582 whole entry, looked up): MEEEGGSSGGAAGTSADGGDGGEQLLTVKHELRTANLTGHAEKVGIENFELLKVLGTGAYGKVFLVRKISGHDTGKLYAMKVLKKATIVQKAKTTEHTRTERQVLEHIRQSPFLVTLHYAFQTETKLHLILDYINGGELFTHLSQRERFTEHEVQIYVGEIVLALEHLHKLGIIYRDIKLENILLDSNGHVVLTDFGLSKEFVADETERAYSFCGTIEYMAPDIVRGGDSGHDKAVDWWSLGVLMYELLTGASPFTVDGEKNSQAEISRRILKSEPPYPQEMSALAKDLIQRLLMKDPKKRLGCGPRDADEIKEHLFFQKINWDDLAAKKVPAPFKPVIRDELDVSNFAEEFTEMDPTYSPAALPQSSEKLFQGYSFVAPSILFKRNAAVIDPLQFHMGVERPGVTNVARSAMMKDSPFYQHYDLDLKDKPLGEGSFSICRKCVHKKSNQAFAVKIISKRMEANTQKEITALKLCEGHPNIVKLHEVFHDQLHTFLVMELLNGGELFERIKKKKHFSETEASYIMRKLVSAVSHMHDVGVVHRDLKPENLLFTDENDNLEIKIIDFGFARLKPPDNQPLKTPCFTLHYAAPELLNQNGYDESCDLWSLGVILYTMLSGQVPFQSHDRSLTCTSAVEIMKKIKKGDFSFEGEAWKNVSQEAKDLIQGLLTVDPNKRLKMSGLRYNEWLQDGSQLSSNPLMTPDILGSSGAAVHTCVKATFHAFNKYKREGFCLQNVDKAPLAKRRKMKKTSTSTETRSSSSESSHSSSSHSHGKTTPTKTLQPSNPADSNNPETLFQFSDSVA
Epidermal growth factor receptor (Homo sapiens), sequence (P00533 whole entry, the tested form may be a part): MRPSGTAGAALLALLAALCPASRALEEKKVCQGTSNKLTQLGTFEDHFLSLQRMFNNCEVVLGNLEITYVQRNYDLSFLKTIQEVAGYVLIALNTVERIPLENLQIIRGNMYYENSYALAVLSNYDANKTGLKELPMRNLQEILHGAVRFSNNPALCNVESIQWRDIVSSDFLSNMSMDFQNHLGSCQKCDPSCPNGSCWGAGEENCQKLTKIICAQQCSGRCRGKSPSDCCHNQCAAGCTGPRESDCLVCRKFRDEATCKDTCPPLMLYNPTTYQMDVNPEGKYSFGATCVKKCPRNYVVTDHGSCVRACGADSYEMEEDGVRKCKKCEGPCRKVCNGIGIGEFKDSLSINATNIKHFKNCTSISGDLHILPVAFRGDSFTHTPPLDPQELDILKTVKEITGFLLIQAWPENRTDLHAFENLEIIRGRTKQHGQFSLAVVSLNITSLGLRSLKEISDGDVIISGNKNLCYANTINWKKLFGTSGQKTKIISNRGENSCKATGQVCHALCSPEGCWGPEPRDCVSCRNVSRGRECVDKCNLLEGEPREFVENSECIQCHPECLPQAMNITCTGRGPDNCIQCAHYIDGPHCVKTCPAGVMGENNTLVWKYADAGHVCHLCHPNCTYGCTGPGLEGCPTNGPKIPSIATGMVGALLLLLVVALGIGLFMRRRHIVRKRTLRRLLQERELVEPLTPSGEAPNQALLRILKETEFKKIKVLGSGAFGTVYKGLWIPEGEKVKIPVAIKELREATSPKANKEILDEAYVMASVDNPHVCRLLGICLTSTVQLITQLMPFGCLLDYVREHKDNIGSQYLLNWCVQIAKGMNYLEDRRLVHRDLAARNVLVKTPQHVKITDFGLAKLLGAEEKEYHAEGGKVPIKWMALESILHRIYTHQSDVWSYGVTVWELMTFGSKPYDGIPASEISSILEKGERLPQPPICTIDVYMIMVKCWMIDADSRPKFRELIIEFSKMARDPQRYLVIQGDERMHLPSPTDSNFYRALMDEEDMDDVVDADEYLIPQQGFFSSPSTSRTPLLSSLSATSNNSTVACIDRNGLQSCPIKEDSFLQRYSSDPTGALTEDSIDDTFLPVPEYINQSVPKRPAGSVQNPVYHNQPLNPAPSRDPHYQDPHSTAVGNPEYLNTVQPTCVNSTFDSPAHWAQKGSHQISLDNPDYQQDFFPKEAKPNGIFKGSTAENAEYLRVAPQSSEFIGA
Vascular endothelial growth factor receptor 2 (Homo sapiens), sequence (P35968 whole entry, the tested form may be a part): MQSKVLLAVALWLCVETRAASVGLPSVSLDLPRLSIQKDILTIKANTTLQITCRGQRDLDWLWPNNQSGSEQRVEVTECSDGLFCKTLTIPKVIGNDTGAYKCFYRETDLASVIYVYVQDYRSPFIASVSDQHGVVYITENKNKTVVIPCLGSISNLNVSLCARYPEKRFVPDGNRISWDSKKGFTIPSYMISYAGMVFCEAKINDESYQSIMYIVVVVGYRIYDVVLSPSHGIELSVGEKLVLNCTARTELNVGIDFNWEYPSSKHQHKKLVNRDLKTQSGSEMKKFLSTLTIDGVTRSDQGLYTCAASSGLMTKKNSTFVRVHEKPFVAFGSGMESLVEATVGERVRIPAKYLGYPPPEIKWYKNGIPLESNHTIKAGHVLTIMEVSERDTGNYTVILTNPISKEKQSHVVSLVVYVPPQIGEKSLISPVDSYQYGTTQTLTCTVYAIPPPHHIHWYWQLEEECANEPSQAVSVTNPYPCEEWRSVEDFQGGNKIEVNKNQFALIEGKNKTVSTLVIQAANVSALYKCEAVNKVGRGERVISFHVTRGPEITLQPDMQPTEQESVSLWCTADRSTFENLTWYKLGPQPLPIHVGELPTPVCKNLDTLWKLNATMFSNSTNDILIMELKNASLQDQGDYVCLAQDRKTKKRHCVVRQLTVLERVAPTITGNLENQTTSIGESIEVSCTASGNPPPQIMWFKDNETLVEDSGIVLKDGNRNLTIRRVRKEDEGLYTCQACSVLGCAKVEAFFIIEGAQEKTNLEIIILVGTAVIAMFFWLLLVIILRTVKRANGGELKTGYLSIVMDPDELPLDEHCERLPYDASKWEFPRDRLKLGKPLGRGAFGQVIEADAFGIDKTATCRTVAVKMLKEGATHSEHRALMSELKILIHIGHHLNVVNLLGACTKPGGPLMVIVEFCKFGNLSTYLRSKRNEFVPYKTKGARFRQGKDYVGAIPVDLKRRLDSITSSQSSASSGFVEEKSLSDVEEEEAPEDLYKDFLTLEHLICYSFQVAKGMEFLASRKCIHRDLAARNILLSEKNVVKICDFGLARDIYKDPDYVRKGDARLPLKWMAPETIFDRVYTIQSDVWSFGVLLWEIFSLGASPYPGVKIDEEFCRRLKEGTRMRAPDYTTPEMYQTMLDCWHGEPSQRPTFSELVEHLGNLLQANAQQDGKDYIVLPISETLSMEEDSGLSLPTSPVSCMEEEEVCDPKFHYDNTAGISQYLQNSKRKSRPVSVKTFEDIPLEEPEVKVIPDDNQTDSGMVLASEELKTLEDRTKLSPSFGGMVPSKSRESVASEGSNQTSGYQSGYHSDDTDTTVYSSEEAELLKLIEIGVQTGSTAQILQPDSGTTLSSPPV
Ribosomal protein S6 kinase alpha-1 (Homo sapiens), sequence (Q15418 whole entry, the tested form may be a part): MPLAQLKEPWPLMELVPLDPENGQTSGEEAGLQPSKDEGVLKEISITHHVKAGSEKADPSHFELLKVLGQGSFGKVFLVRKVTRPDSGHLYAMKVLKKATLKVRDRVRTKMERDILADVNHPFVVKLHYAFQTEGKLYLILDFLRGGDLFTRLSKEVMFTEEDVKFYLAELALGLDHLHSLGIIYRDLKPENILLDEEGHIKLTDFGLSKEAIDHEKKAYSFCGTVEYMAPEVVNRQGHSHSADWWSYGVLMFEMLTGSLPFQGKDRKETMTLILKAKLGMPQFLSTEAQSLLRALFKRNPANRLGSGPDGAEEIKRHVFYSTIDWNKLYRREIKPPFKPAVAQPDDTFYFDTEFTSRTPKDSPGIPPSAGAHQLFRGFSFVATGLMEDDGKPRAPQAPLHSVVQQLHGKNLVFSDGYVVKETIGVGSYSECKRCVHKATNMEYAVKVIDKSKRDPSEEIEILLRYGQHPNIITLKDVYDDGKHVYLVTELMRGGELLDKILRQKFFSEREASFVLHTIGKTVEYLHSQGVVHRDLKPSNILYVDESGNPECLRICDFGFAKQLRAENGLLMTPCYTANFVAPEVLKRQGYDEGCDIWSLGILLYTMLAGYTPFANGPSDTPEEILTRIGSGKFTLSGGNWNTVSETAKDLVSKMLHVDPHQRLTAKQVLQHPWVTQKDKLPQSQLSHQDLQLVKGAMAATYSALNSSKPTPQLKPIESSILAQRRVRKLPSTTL

With `NCC1CCN(c2ncnc3[nH]ccc23)CC1`, the inhibition came out at 68% in test [1], 56.5% in [2] and 0% in test [3].
Regarding `C[C@H](CN(C)C)Oc1nc(Nc2cc3cccc(Cl)c3cn2)cnc1C#N`, the inhibition in [4] turned out to be 0.5%.
For the compound `NC1(Cc2ccc(Cl)cc2)CCN(c2ncnc3[nH]ccc23)CC1`, the inhibition in test [5] was 0%.
With `Clc1ccc(C2(c3ccc(-c4ncnc5[nH]cnc45)cc3)CCNCC2)cc1`, the inhibition in test [6] amounted to 38%.
With `NCC1CN(c2ncnc3[nH]c4cnccc4c23)CCO1` (stereo unspecified), the inhibition in test [7] is 54.5%.
Regarding `CNCc1ccc(-c2ncnc3[nH]cnc23)cc1`, the figures for the inhibition in test [8] and in test [9] were 72% and 39%, respectively.
`NCCc1ccc(-c2ncnc3[nH]cnc23)cc1`: the inhibition in test [10] turned out to be 93%; in [11] it was 62%.
